Test results: paper PMC10992376, “High coenzyme affinity chimeric amine dehydrogenase based on domain engineering” (Bioresources and Bioprocessing, 2022)
Read-outs that look alike come from different tables or passages of the source.

Tested on: T1, cFLF-AmDH
T1 construct: gene pdh; KS/NL parents; C-terminal His6; E. coli BL21(DE3)
Test: NADH oxidation at […] nm, Michaelis-Menten fit
Format: biochemical, Pseudobacillus badius
Details: 2 M NH4Cl/NH4OH, optimum pH and temperature (table note; Methods: 100 mM NH4Cl/NH4OH, pH 8.5, 30 °C)

Row | Compound | Km (read-out: NADH / Km, co-substrate pFPA) [mM] | Km (co-substrate NADH, ammonium, read-out: pFPA / Km) [mM]
1 | NC(=O)C1=CN([C@@H]2O[C@H](COP(=O)(O)OP(=O)(O)OC[C@H]3O[C@@H](n4cnc5c(N)ncnc54)[C@H](O)[C@@H]3O)[C@@H](O)[C@H]2O)C=CC1 [NADH] | 0.49 ± 0.02 | 
2 | CC(=O)Cc1ccc(F)cc1 [p-FPA] |  | 21.8 ± 2.67
